From patent US8952024B2, “Herbicidal pyrimidone derivatives” (E I du Pont de Nemours and Company, priority 2009, dated 2015)

What was measured:
Type in all cases: in vivo
[1] = tested on: barnyardgrass (Echinochloa crus-galli); assay: Test A pre-/postemergence plant response
Excerpt: (§1) Seeds of barnyardgrass (Echinochloa crus-galli), large crabgrass (Digitaria sanguinalis), giant foxtail (Setaria faberii), morningglory (Ipomoea spp.), pigweed (Amaranthus retroflexus), velvetleaf (Abutilon theophrasti), wheat (Triticum aestivum) and corn (Zea mays) were planted into a blend of loam soil and sand and treated preemergence with a directed soil spray using test chemicals formulated in a non-phytotoxic solvent mixture which included a surfactant. At the same time these species were also treated with postemergence applications of test compounds formulated in the same manner.
(§2) Plants ranged in height from two to ten cm and were in the one- to two-leaf stage for the postemergence treatment. Treated plants and untreated controls were maintained in a greenhouse for approximately ten days, after which time all treated plants were compared to untreated controls and visually evaluated for injury. Plant response ratings, summarized in Table A, are based on a 0 to 100 scale where 0 is no effect and 100 is complete control. A dash (-) response means no test result.

corn (Zea mays) = assay: Test A pre-/postemergence plant response
Excerpt: as §1, §2

[2] = tested on: giant foxtail (Setaria faberii); assay: Test A pre-/postemergence plant response
Excerpt: as §1, §2

[3] = tested on: large crabgrass (Digitaria sanguinalis); assay: Test A pre-/postemergence plant response
Excerpt: as §1, §2

[4] = tested on: morningglory (Ipomoea spp.); assay: Test A pre-/postemergence plant response
Excerpt: as §1, §2

[5] = tested on: pigweed (Amaranthus retroflexus); assay: Test A pre-/postemergence plant response
Excerpt: as §1, §2

[6] = tested on: velvetleaf (Abutilon theophrasti); assay: Test A pre-/postemergence plant response
Excerpt: as §1, §2

[7] = tested on: wheat (Triticum aestivum); assay: Test A pre-/postemergence plant response
Excerpt: as §1, §2

[8] = tested on: barnyardgrass (Echinochloa crus-galli); assay: Test B flooded paddy test; conditions: for Plant response rating, Flood, Barnyardgrass: 250 g ai/ha, flooded paddy test, visual rating on 0 to 100 scale (0 no effect, 100 complete control) after 13 to 15 days; for Plant response rating, Barnyardgrass: Flood (flooded paddy test), 62 g ai/ha, scale 0 to 100, 0 is no effect, 100 is complete control, 13 to 15 days
Excerpt: (§3) Plant species in the flooded paddy test consisted of rice (Oryza sativa), umbrella sedge (Cyperus difformis), ducksalad (Heteranthera limosa) and barnyardgrass (Echinochloa crus-galli) grown to the 2-leaf stage for testing. At the time of treatment, test pots were flooded with water to 3 cm above the soil surface, treated by application of test compounds directly to the paddy water, and then maintained at that water depth for the duration of the test.
(§4) Treated plants and controls were maintained in a greenhouse for 13 to 15 days, after which time all treated plants were visually evaluated and compared to controls. Plant response ratings, summarized in Table B, are based on a scale of 0 to 100 where 0 is no effect and 100 is complete control. A dash (-) response means no test result.

[9] = tested on: ducksalad (Heteranthera limosa); assay: Test B flooded paddy test; conditions: for Plant response rating, Flood, Ducksalad: 250 g ai/ha, flooded paddy test, visual rating on 0 to 100 scale (0 no effect, 100 complete control) after 13 to 15 days; for Plant response rating, Ducksalad: Flood (flooded paddy test), 62 g ai/ha, scale 0 to 100, 0 is no effect, 100 is complete control, 13 to 15 days
Excerpt: as §3, §4

rice (Oryza sativa) = assay: Test B flooded paddy test; conditions: for Plant response rating, Flood, Rice: 250 g ai/ha, flooded paddy test, visual rating on 0 to 100 scale (0 no effect, 100 complete control) after 13 to 15 days; for Plant response rating, Rice: Flood (flooded paddy test), 62 g ai/ha, scale 0 to 100, 0 is no effect, 100 is complete control, 13 to 15 days
Excerpt: as §3, §4

[10] = tested on: umbrella sedge (Cyperus difformis); assay: Test B flooded paddy test; conditions: for Plant response rating, Flood, Sedge, Umbrella: 250 g ai/ha, flooded paddy test, visual rating on 0 to 100 scale (0 no effect, 100 complete control) after 13 to 15 days; for Plant response rating, Sedge, Umbrella: Flood (flooded paddy test), 62 g ai/ha, scale 0 to 100, 0 is no effect, 100 is complete control, 13 to 15 days
Excerpt: as §3, §4

[11] = Postemergence, 125 g ai/ha, visual injury, 0 to 100 scale (0 no effect, 100 complete control), approx. ten days
[12] = Postemergence, 500 g ai/ha, 0 to 100 scale, 0 = no effect, 100 = complete control, approx. ten days
[13] = Preemergence, 125 g ai/ha, 0 to 100 scale, 0 = no effect, 100 = complete control
[14] = Preemergence, 500 g ai/ha, visual injury, 0 to 100 scale (0 no effect, 100 complete control), approx. ten days

SMILES | Barnyardgrass plant response rating [1, 11] | Plant response rating, Barnyardgrass [1, 12] | Plant response rating, Barnyardgrass [1, 13] | Plant response rating, Barnyardgrass [1, 14] | Corn plant response rating (corn (Zea mays); [11]) | Plant response rating, Corn (corn (Zea mays); [12]) | Plant response rating, Corn (corn (Zea mays); [13]) | Plant response rating, Corn (corn (Zea mays); [14]) | Foxtail, Giant plant response rating [2, 11] | Plant response rating, Foxtail, Giant [2, 12] | Plant response rating, Foxtail, Giant [2, 13] | Plant response rating, Foxtail, Giant [2, 14] | Crabgrass, Large plant response rating [3, 11] | Plant response rating, Crabgrass, Large [3, 12] | Plant response rating, Crabgrass, Large [3, 13] | Plant response rating, Crabgrass, Large [3, 14] | Morningglory plant response rating [4, 11] | Plant response rating, Morningglory [4, 12] | Plant response rating, Morningglory [4, 13] | Plant response rating, Morningglory [4, 14] | other results
Cc1ccc(-n2c(-c3ccccc3)ncc(C(=O)C3=C(O)CCCC3=O)c2=O)cc1C [Compound 32] | 20 | 80 | 0 | 90 | 0 | 10 | 0 | 0 | 30 | 90 | 10 | 90 | 50 | 90 | 20 | 90 | 50 | 100 | 0 | 80 | Pigweed plant response rating [5, 11]: 100; Plant response rating, Pigweed [5, 12]: 100; Plant response rating, Pigweed [5, 13]: 30; Plant response rating, Pigweed [5, 14]: 100; Velvetleaf plant response rating [6, 11]: 100; Plant response rating, Velvetleaf [6, 12]: 100; Plant response rating, Velvetleaf [6, 13]: 20; Plant response rating, Velvetleaf [6, 14]: 70; Wheat plant response rating [7, 11]: 0; Plant response rating, Wheat [7, 12]: 30; Plant response rating, Wheat [7, 13]: 0; Plant response rating, Wheat [7, 14]: 20; Plant response rating, Flood, Barnyardgrass [8]: 40; Plant response rating, Barnyardgrass [8]: 10; Plant response rating, Flood, Ducksalad [9]: 95; Plant response rating, Ducksalad [9]: 75; Plant response rating, Flood, Rice (rice (Oryza sativa)): 30; Plant response rating, Rice (rice (Oryza sativa)): 0; Plant response rating, Flood, Sedge, Umbrella [10]: 90; Plant response rating, Sedge, Umbrella [10]: 75
Cc1ccc(-n2c(-c3ccccc3)ncc(C(=O)C3=C(O)CCCC3=O)c2=O)c(Cl)c1 [Compound 41] | 50 | 90 | 0 | 80 | 0 | 10 | 0 | 0 | 20 | 80 | 10 | 30 | 20 | 70 | 20 | 80 | 10 | 70 | 0 | 20 | Pigweed plant response rating [5, 11]: 100; Plant response rating, Pigweed [5, 12]: 100; Plant response rating, Pigweed [5, 13]: 90; Plant response rating, Pigweed [5, 14]: 90; Velvetleaf plant response rating [6, 11]: 100; Plant response rating, Velvetleaf [6, 12]: 100; Plant response rating, Velvetleaf [6, 13]: 30; Plant response rating, Velvetleaf [6, 14]: 80; Wheat plant response rating [7, 11]: 0; Plant response rating, Wheat [7, 12]: 0; Plant response rating, Wheat [7, 13]: 0; Plant response rating, Wheat [7, 14]: 0; Plant response rating, Flood, Barnyardgrass [8]: 30; Plant response rating, Barnyardgrass [8]: 0; Plant response rating, Flood, Ducksalad [9]: 75; Plant response rating, Ducksalad [9]: 70; Plant response rating, Flood, Rice (rice (Oryza sativa)): 0; Plant response rating, Rice (rice (Oryza sativa)): 0; Plant response rating, Flood, Sedge, Umbrella [10]: 80; Plant response rating, Sedge, Umbrella [10]: 70
